Reference: patent publication EP0454444A1, “Glutarimide derivatives and herbicides” (NISSAN CHEMICAL INDUSTRIES LTD., priority 1990, dated 1991)

Assays:
Assay in all cases: Herbicidal effect test by soil treatment
Assay type in all cases: in vivo
[1] = tested on: annual sedge (Cyperus microiria); details: three weeks after spraying
In short: (§1)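 Pre-emergence test: seeds of mixed weeds and crops were sown in sterilized diluvial soil, covered with about 1 cm soil, then the surface was sprayed with water-diluted formulations at set active-ingredient rates. Three weeks later, growth control was scored from top fresh weight of treated versus untreated plants.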

rice (Oryza sativa) = details: crop plant, three weeks after spraying
In short: as §1

soybean (Glysine max) = details: crop plant, three weeks after spraying
In short: as §1

[2] = tested on: hairly galinosoga (Galinsoga ciliat); details: three weeks after spraying
In short: as §1

[3] = tested on: wheat (Triticum aestivum); details: crop plant, three weeks after spraying
In short: as §1

[4] = tested on: rorippa ssp. (Rorippa atrovirens); details: three weeks after spraying
In short: as §1

[5] = tested on: cotton (Gossypium herbaceum); details: crop plant, three weeks after spraying
In short: as §1

[6] = tested on: barnyardgrass (Echinochloa crusgalli); details: three weeks after spraying
In short: as §1

[7] = tested on: large crabgrass (Digitaria adscendens); details: three weeks after spraying
In short: as §1

[8] = tested on: black nightshade (Solanum nigrum L.); details: three weeks after spraying
In short: as §1

corn (Zea mays) = details: crop plant, three weeks after spraying
In short: as §1

Row | Structure (SMILES) | herbicidal effect, K (Cyperus microiria) ([1]; application amount 0.4 g/a) | herbicidal effect, K (Cyperus microiria) ([1]; application amount 0.8 g/a) | herbicidal effect, K (Cyperus microiria) ([1]; application amount 1.6 g/a) | herbicidal effect, R (Oryza sativa) (rice (Oryza sativa); application amount 0.4 g/a) | herbicidal effect, R (Oryza sativa) (rice (Oryza sativa); application amount 0.8 g/a) | herbicidal effect, R (Oryza sativa) (rice (Oryza sativa); application amount 1.6 g/a) | herbicidal effect, S (Glysine max) (soybean (Glysine max); application amount 0.4 g/a) | herbicidal effect, S (Glysine max) (soybean (Glysine max); application amount 0.8 g/a) | herbicidal effect, S (Glysine max) (soybean (Glysine max); application amount 1.6 g/a) | herbicidal effect, D (Galinsoga ciliat) ([2]; application amount 0.4 g/a) | herbicidal effect, D (Galinsoga ciliat) ([2]; application amount 0.8 g/a) | herbicidal effect, D (Galinsoga ciliat) ([2]; application amount 1.6 g/a) | herbicidal effect, W (Triticum vulgare) ([3]; application amount 0.4 g/a) | herbicidal effect, W (Triticum vulgare) ([3]; application amount 1.6 g/a) | herbicidal effect, I (Rorippa indica) ([4]; application amount 1.6 g/a) | herbicidal effect, C (Gossypium herbaceum) ([5]; application amount 1.6 g/a) | herbicidal effect, N (Echinochloa crusgalli) ([6]; application amount 1.6 g/a) | herbicidal effect, M (Digitaria adscendens) ([7]; application amount 1.6 g/a) | herbicidal effect, H (Solanum nigrum L.) ([8]; application amount 1.6 g/a) | herbicidal effect, T (Zea mays) (corn (Zea mays); application amount 1.6 g/a) | further results
1 | C#CCN1C(=O)COc2cc(F)c(N3C(=O)CC(C(F)(F)F)CC3=O)cc21 [1-26] | 5 (Growth control,rates of more than 90% (almost completely withered)) | 5 (Growth control,rates of more than 90% (almost completely withered)) | 5 (Growth control,rates of more than 90% (almost completely withered)) | 5 (Growth control,rates of more than 90% (almost completely withered)) | 5 (Growth control,rates of more than 90% (almost completely withered)) | 5 (Growth control,rates of more than 90% (almost completely withered)) | 0 (Growth control rates of less than 5% (substantially no effect)) | 2 (Growth control rates of 20 to 40%) | 4 (Growth control rates of 70 to 90%) | 5 (Growth control,rates of more than 90% (almost completely withered)) | 5 (Growth control,rates of more than 90% (almost completely withered)) | 5 (Growth control,rates of more than 90% (almost completely withered)) | 4 (Growth control rates of 70 to 90%) | 5 (Growth control,rates of more than 90% (almost completely withered)) | 5 (Growth control,rates of more than 90% (almost completely withered)) | 5 (Growth control,rates of more than 90% (almost completely withered)) | 5 (Growth control,rates of more than 90% (almost completely withered)) | 5 (Growth control,rates of more than 90% (almost completely withered)) | 5 (Growth control,rates of more than 90% (almost completely withered)) | 5 (Growth control,rates of more than 90% (almost completely withered)) | herbicidal effect, W (Triticum vulgare) ([3]; application amount 0.8 g/a): 5 (Growth control,rates of more than 90% (almost completely withered)); herbicidal effect, I (Rorippa indica) ([4]; application amount 0.4 g/a): 5 (Growth control,rates of more than 90% (almost completely withered)); herbicidal effect, I (Rorippa indica) ([4]; application amount 0.8 g/a): 5 (Growth control,rates of more than 90% (almost completely withered)); herbicidal effect, C (Gossypium herbaceum) ([5]; application amount 0.4 g/a): 5 (Growth control,rates of more than 90% (almost completely withered)); herbicidal effect, C (Gossypium herbaceum) ([5]; application amount 0.8 g/a): 5 (Growth control,rates of more than 90% (almost completely withered)); herbicidal effect, N (Echinochloa crusgalli) ([6]; application amount 0.4 g/a): 5 (Growth control,rates of more than 90% (almost completely withered)); herbicidal effect, N (Echinochloa crusgalli) ([6]; application amount 0.8 g/a): 5 (Growth control,rates of more than 90% (almost completely withered)); herbicidal effect, M (Digitaria adscendens) ([7]; application amount 0.4 g/a): 5 (Growth control,rates of more than 90% (almost completely withered)); herbicidal effect, M (Digitaria adscendens) ([7]; application amount 0.8 g/a): 5 (Growth control,rates of more than 90% (almost completely withered)); herbicidal effect, H (Solanum nigrum L.) ([8]; application amount 0.4 g/a): 5 (Growth control,rates of more than 90% (almost completely withered)); herbicidal effect, H (Solanum nigrum L.) ([8]; application amount 0.8 g/a): 5 (Growth control,rates of more than 90% (almost completely withered)); herbicidal effect, T (Zea mays) (corn (Zea mays); application amount 0.4 g/a): 4 (Growth control rates of 70 to 90%); herbicidal effect, T (Zea mays) (corn (Zea mays); application amount 0.8 g/a): 5 (Growth control,rates of more than 90% (almost completely withered))
2 | CCS(=O)(=O)Nc1cc(N2C(=O)CC(C(F)(F)F)CC2=O)c(F)cc1Cl [1-15] | – | – | 5 (Growth control,rates of more than 90% (almost completely withered)) | – | – | 0 (Growth control rates of less than 5% (substantially no effect)) | – | – | 0 (Growth control rates of less than 5% (substantially no effect)) | – | – | 5 (Growth control,rates of more than 90% (almost completely withered)) | – | 0 (Growth control rates of less than 5% (substantially no effect)) | 5 (Growth control,rates of more than 90% (almost completely withered)) | 0 (Growth control rates of less than 5% (substantially no effect)) | 3 (Growth control rates of 40 to 70%) | 5 (Growth control,rates of more than 90% (almost completely withered)) | 5 (Growth control,rates of more than 90% (almost completely withered)) | 0 (Growth control rates of less than 5% (substantially no effect)) | –
3 | C#CCN1C(=O)COc2cc(F)c(N3C(=O)CC(C)CC3=O)cc21 [1-23] | 5 (Growth control,rates of more than 90% (almost completely withered)) | 5 (Growth control,rates of more than 90% (almost completely withered)) | 5 (Growth control,rates of more than 90% (almost completely withered)) | 2 (Growth control rates of 20 to 40%) | 3 (Growth control rates of 40 to 70%) | 5 (Growth control,rates of more than 90% (almost completely withered)) | 0 (Growth control rates of less than 5% (substantially no effect)) | 1 (Growth control rates of 5 to 20%) | 2 (Growth control rates of 20 to 40%) | 5 (Growth control,rates of more than 90% (almost completely withered)) | 5 (Growth control,rates of more than 90% (almost completely withered)) | 5 (Growth control,rates of more than 90% (almost completely withered)) | 4 (Growth control rates of 70 to 90%) | 5 (Growth control,rates of more than 90% (almost completely withered)) | 5 (Growth control,rates of more than 90% (almost completely withered)) | 4 (Growth control rates of 70 to 90%) | 5 (Growth control,rates of more than 90% (almost completely withered)) | 5 (Growth control,rates of more than 90% (almost completely withered)) | 5 (Growth control,rates of more than 90% (almost completely withered)) | 5 (Growth control,rates of more than 90% (almost completely withered)) | herbicidal effect, W (Triticum vulgare) ([3]; application amount 0.8 g/a): 5 (Growth control,rates of more than 90% (almost completely withered)); herbicidal effect, I (Rorippa indica) ([4]; application amount 0.4 g/a): 5 (Growth control,rates of more than 90% (almost completely withered)); herbicidal effect, I (Rorippa indica) ([4]; application amount 0.8 g/a): 5 (Growth control,rates of more than 90% (almost completely withered)); herbicidal effect, C (Gossypium herbaceum) ([5]; application amount 0.4 g/a): 2 (Growth control rates of 20 to 40%); herbicidal effect, C (Gossypium herbaceum) ([5]; application amount 0.8 g/a): 3 (Growth control rates of 40 to 70%); herbicidal effect, N (Echinochloa crusgalli) ([6]; application amount 0.4 g/a): 5 (Growth control,rates of more than 90% (almost completely withered)); herbicidal effect, N (Echinochloa crusgalli) ([6]; application amount 0.8 g/a): 5 (Growth control,rates of more than 90% (almost completely withered)); herbicidal effect, M (Digitaria adscendens) ([7]; application amount 0.4 g/a): 5 (Growth control,rates of more than 90% (almost completely withered)); herbicidal effect, M (Digitaria adscendens) ([7]; application amount 0.8 g/a): 5 (Growth control,rates of more than 90% (almost completely withered)); herbicidal effect, H (Solanum nigrum L.) ([8]; application amount 0.4 g/a): 5 (Growth control,rates of more than 90% (almost completely withered)); herbicidal effect, H (Solanum nigrum L.) ([8]; application amount 0.8 g/a): 5 (Growth control,rates of more than 90% (almost completely withered)); herbicidal effect, T (Zea mays) (corn (Zea mays); application amount 0.4 g/a): 4 (Growth control rates of 70 to 90%); herbicidal effect, T (Zea mays) (corn (Zea mays); application amount 0.8 g/a): 5 (Growth control,rates of more than 90% (almost completely withered))
